Where two headings read alike, the source gives them in different places.
How the values were obtained:
rat pancreatic islets [1] = assay: Insulin release from incubated rat pancreatic islets; format: cell-based; conditions: 10 μM compound, 16.7 mM glucose, % of control without drug; mean ± s.e.m. (n)
Experimental: Measurement of insulin release from incubated rat pancreatic islets was performed according to the following procedure.
Experiments were performed with pancreatic islets isolated from adult fed Wistar rats (Charles River Laboratories, Belgium).
Groups of 10 islets, each derived from the same batch of islets, were preincubated for 30 minutes at 37° C. in 1 mL of a physiological salt medium (in mM: NaCl 115, KCl 5, CaCl2 2.56, MgCl2 1, NaHCO3 24) supplemented with 2.8 mM glucose, 0.5% (w:v) dialyzed albumin (Sigma) and equilibrated against a mixture of O2 (95%) and CO2 (5%). The islets were then incubated at 37° C. for 90 minutes in 1 mL of the same medium containing 16.7 mM glucose and, in addition, the required benzopyran derivative.
The release of insulin was measured radioimmunologically according to Leclercq-Meyer et al., Endocrinology, 1985, 116, 1168-1174 using rat insulin as a standard.
Residual insulin secretion was expressed as a percentage of the value recorded in control experiments (100%); i.e. in the absence of drug and presence of 16.7 mM glucose. Measurement of 86Rb outflow from perifused rat pancreatic islets was performed according to the following procedure. Groups of 100 islets were incubated for 60 min in a medium containing 16.7 mM glucose and 86Rb (0.15-0.25 mM; 50 μCi/ml). After incubation, the islets were washed three times and then placed in a perifusion chamber. The perifusate was delivered at a constant rate (1.0 ml/min). From the 31st to the 90th min, the effluent was continuously collected over successive periods of 1 min each. An aliquot of the effluent (0.6 ml) was used for scintillation counting. At the end of the perifusion, the radioactive content of the islets was determined. The outflow of 86Rb (cpm/min) was expressed as a fractional outflow rate (% of instantaneous islet content/min; FOR).

rat pancreatic islets [2] = conditions: cited from earlier work; for Residual insulin secretion (%) [10 μM]: 10 μM compound, published results (footnotes b, c)
rat aorta rings = assay: Measurement of tension in rat aorta rings (myorelaxant activity); format: cell-based; conditions: KCl-contracted rat aorta rings; concentration evoking 50% inhibition of plateau phase; mean ± s.e.m. (n); read-out: Myorelaxant activity ED50
Experimental: Measurement of tension in rat aorta rings was performed according to the following procedure.
Experiments were performed with aorta removed from adult fed Wistar rats (Charles River Laboratories, Belgium).
A section of the thoracic aorta was cleared of adhering fat and connective tissue and was cut into transverse rings (3-4 mm long). The endothelium was removed and the segments suspended under 1.5 g tension in an organ bath containing 20 mL of a physiological solution (in mM: NaCl 118, KCl 4.7, CaCl2 2.5, NaHCO3 25, KH2PO4 1.2, MgSO4 1.2, glucose 5). The physiological solution was maintained at 37° C. and continuously bubbled with a mixture of O2 (95%) and CO2 (5%). Isometric contractions were measured with a force-displacement transducer. After 60 minutes of equilibration, the rings were exposed to KCl (30 or 80 mM). When the tension had stabilized, the chroman derivative was added to the bath at increasing concentrations until maximal relaxation (or until 300 µM). Some experiments were repeated in the continuous presence of 1 or 10 µM glibenclamide in the bathing medium.
The relaxation response was expressed as the percentage of the contractile response to KCl. The ED50 values (concentration evoking 50% inhibition of the plateau phase induced by KCl) were assessed from dose-response curves using Datanalyst software (EMKA Technologies, France).

Row | Compound | Residual insulin secretion (%) [10 μM] (rat pancreatic islets [1]) | further results
1 | COc1cccc(NC(=S)NC2CC(C)(C)Oc3ccc(F)cc32)c1 (stereo not drawn) [Example 22, R/S-3,4-Dihydro-2,2-dimethyl-6-fluoro-4-(3-methoxyphenylaminothiocarbonylamino)-2H-1-benzopyran] | 52.0 ± 2.3% | –
2 | CC1(C)CC(NC(=O)Nc2ccc(Cl)cc2)c2cc(Br)ccc2O1 (stereo not drawn) [Example 82, R/S-6-Bromo-4-(4-chlorophenylaminocarbonylamino)-3,4-dihydro-2,2-dimethyl-2H-1-benzopyran] | 25.7 ± 1.5% | –
3 | CC1(C)Oc2ccc(C#N)cc2C(N2CCCC2=O)C1O (stereo not drawn) [Cromakalim, cromakalim] | 94.7 ± 4.3 (24) % | Activity as an inhibitor of insulin secretion (in words) (rat pancreatic islets [2]; background statement, reflects poor activity as PCO on pancreatic KATP channels): poorly active; EC50 (rat aorta rings): 130 ± 10 nM
4 | Cc1cccc(NC(=S)NC2CC(C)(C)Oc3ccc(F)cc32)c1 (stereo not drawn) [Example 4, R/S-3,4-Dihydro-2,2-dimethyl-6-fluoro-4-(3-methylphenylaminothiocarbonylamino)-2H-1-benzopyran] | 53.1 ± 3.6% | –
5 | CC1=NS(=O)(=O)c2cc(Cl)ccc2N1 [Diazoxide, diazoxide] | – | Residual insulin secretion (%) [10 μM] (rat pancreatic islets [2]): 71.7 ± 2.8 (38)^b %
6 | CC1(C)CC(NC(=S)Nc2cccnc2)c2cc(Br)ccc2O1 (stereo not drawn) [Example 42, R/S-6-Bromo-3,4-dihydro-2,2-dimethyl-4-(3-pyridylaminothiocarbonylamino)-2H-1-benzopyran] | 44.3 ± 2.8% | –
7 | Cc1ccc(NC(=S)NC2CC(C)(C)Oc3ccc(Cl)cc32)cc1 (stereo not drawn) [Example 8, R/S-6-Chloro-3,4-dihydro-2,2-dimethyl-4-(4-methylphenylaminothiocarbonylamino)-2H-1-benzopyran] | 32.8 ± 1.9% | –
8 | CC1(C)CC(NC(=O)Nc2cccc(Cl)c2)c2cc(F)ccc2O1 (stereo not drawn) [Example 77, R/S-4-(3-Chlorophenylaminocarbonylamino)-3,4-dihydro-2,2-dimethyl-6-fluoro-2H-1-benzopyran] | 28.0 ± 1.5% | –
9 | CC(N/C(=N\C#N)Nc1ccncc1)C(C)(C)C (stereo not drawn) [Pinacidil, pinacidil] | – | Residual insulin secretion (%) [10 μM] (rat pancreatic islets [2]): 96.0 ± 4.2 (20)^c %; EC50 (rat aorta rings): 350 ± 20 nM

Source: US7507761B2, “Benzopyran derivatives, method of production and use thereof” (Universite de Liege, priority 2004, dated 2009)
